Laboratory results: article PMC5059489, “Mechanistic evaluation and transcriptional signature of a glutathione S-transferase omega 1 inhibitor” (Nature Communications, 2016)
Values joined by “and” are separate entries in the source; they are usually repeats but may differ in a detail not shown here. Equal values may be shown once.

Key:
GSTO1 [1] = molecular target: T1, GSTO1 (Homo sapiens, UniProt P78417); experiment: In-gel fluorescence competitive CMFDA binding assay, recombinant GSTO1; settings: inhibition of CMFDA binding
T1 sequence (P78417 1-241): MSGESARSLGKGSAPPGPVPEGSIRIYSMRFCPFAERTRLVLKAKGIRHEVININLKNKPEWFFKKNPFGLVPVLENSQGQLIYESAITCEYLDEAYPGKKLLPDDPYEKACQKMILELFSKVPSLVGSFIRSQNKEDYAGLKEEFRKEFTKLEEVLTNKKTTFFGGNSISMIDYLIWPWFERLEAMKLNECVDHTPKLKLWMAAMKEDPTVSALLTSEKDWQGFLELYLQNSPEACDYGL
Source text: (§1) Primary screening of GSTO inhibitors was based on competitive inhibition of CMFDA binding to endogenous GSTO. Briefly, HCT116^p53+/+ cells (4 × 10^4 per well) were coated in a 12-well plate. […] Cells were then washed with PBS and lysed using Cell Lytic M buffer (Sigma). […] Gels were immediately scanned on a Typhoon variable mode imager (Amersham Bioscience). Quantification of fluorescent band intensity was done using Image Quant 5.2 software.

GSTO1 [2] = molecular target: T1, GSTO1; experiment: GSTO1 substrate assay (reduction of 4-NPG); settings: for IC50: read-out: GSTO substrate assay IC50, cluster screening tables
Method: For activity screening, we adapted a GSTO1 substrate assay that relies on the quantification of the reduction of S-(4-nitrophenacyl)glutathione (4-NPG), a GSTO1-specific substrate[17], using recombinant human GSTO1 in a high-throughput screening format.
Enzyme activity was measured by monitoring the reduction of 4-NPG to 4-nitroacetophenone by GSTO1.

HCT116p53+/+ cell = experiment: MTT cell proliferation at single concentration; assay type: cell-based, human
Method: Cell proliferation was assessed by a MTT assay. Cancer cells were seeded in 96-well microtitre plates and, after overnight attachment, treated with GSTO1 inhibitors. After 72 h, MTT solution (3 mg ml^−1; 20 μl) was added to each well and cells were incubated for 3 h at 37 °C. After incubation, media from each well was removed and the dark blue formazan crystals formed by live cells were dissolved in DMSO (150 μl per well). The absorbance intensity was measured at 570 nm on a microplate reader (Molecular Devices, Sunnyvale, CA, USA). Cell viability after 24 h treatment was assessed using ApoTox-Glo triplex assay (Promega) according to the manufacturer's protocol. At least three independent dose–response experiments with each concentration tested in triplicate were performed for each cell line.

endogenous GSTO1 = molecular target: T2, endogenous GSTO1 (Homo sapiens, UniProt P78417); experiment: In-gel fluorescence competitive CMFDA binding assay, endogenous GSTO1 in HCT116; settings: 10 µM; inhibition of CMFDA binding, HCT116
T2 sequence (P78417 1-241): T1 sequence (P78417 1-241)
Source text: as §1

Row | GSTO binding assay (% Inhibition at 10 µM) Recombinant (GSTO1 [1]) [%] | GSTO substrate assay % Inhibition at 10 µM (GSTO1 [2]) [%] | IC50 (GSTO1 [2]) [nM] | GSTO binding assay (% Inhibition at 10 µM) Endogenous (endogenous GSTO1) [%] | SMILES | % Inhibition of HCT116p53+/+ cell proliferation at 10 µM (HCT116p53+/+ cell)
1 | 17.7 | 16.2 |  |  | Cc1cc(C(C)(C)C)cc(C)c1NC(=O)CCl [C1-1] | 14% and 21.3%
2 | 54.1 | 100.9 | 1220 | 66.2 | O=C(CCl)Nc1ccc(Cl)cc1[N+](=O)[O-] [C1-2] | 7.4%
3 | 81.5 | 92.5 |  | 31.8 | O=C(CCl)Nc1cc([N+](=O)[O-])ccc1Nc1ccc(F)cc1 [C1-4] | 80.6%
4 | 52.9 | 96.3 |  | 22.9 | C=CCSc1ccccc1NC(=O)CCl [C1-5] | -3.8% and -2.6%
5 | 75.6 | 77.7 | 162 | 56.6 | O=C(CCl)Nc1ccc(Oc2ccc(Br)cc2)cc1 [C1-7] | 29.6%
6 | 56.5 | 12.5 |  | 39.3 | CC(=O)c1cc2c(cc1NC(=O)CCl)OCO2 [C1-9] | -1.2%
7 | 49.1 | 81.7 |  | 49.7 | COc1cc(NC(=O)CCl)c(Cl)cc1C(=O)O [C1-10] | 19.7%
8 | 55.2 | 77.7 | 1160 | 58.6 | O=C(CCl)Nc1cc2c(cc1Cl)OCCCO2 [C1-11] | 63.4% and 65.6%
9 | 26.5 | 10.4 |  | 40.1 | O=C(CCl)Nc1cc2c(cc1Cl)C(=O)c1ccccc1C2=O [C1-12] | 85%
10 | 35.2 | 62.2 |  | 61.1 | O=C(CCl)Nc1ccccc1C(=O)NCc1ccco1 [C1-13] | 14.3% and 6.6%
11 | 49.2 | 87.8 |  | 46.7 | Cc1cc(NC(=O)CCl)ccc1N1CCCC1 [C1-16] | 41.9%
12 | -4.1 | 88.5 |  | -9.5 | O=C(CCl)Nc1cc(C(F)(F)F)ccc1N1CCCC1 [C1-17] | 94.8% and 91%
13 | 6.4 | 3.7 |  | 54.4 | O=C(CCl)Nc1ccccc1N1CCCC1=O [C1-18] | 41.5% and 41.7%
14 | 38.3 | 61.5 |  | 65.7 | CC1CCN(c2ccc(NC(=O)CCl)cc2)CC1 [C1-19] | 79.2% and 85.4%
15 | 25.1 | 41.4 |  | 49.0 | CC(=O)N1CCc2cc(NC(=O)CCl)ccc21 [C1-22] | 80.8% and 86%
16 | 70.3 | 9.8 |  |  | CN(C1CCCCC1)S(=O)(=O)c1ccc(NC(=O)CCl)cc1 [C1-25] | 11.3% and 21.7%
17 | 51.4 | 31.1 |  | 48.9 | Cc1cc(S(=O)(=O)N(C)C)cc(NC(=O)CCl)c1C [C1-26] | 13.2%
18 | -0.8 | 54.8 |  | 45.0 | CCN1CCC(NC(=O)CCl)CC1 [C2-1] | 65.6% and 62.7%

Row | GSTO binding assay (% Inhibition at 10 µM) Recombinant (GSTO1 [1]) [%] | GSTO substrate assay % Inhibition at 10 µM (GSTO1 [2]) [%] | IC50 (GSTO1 [2]) [nM] | GSTO binding assay (% Inhibition at 10 µM) Endogenous (endogenous GSTO1) [%] | SMILES | % Inhibition of HCT116p53+/+ cell proliferation at 10 µM (HCT116p53+/+ cell)
19 | 6.5 | 90.5 |  | 66.7 | O=C(CCl)NC1CCN(Cc2ccccc2)CC1 [C2-2] | 1.1%
20 | 37.8 | 61.5 |  | 47.0 | Cc1c(C#N)c(NC(=O)CCl)n(-c2ccc(F)cc2)c1C [C2-3] | 49%
21 | 35.8 | 0.5 |  | 51.3 | Cc1ccc(C)c(-n2nc(C)cc2NC(=O)CCl)c1 [C2-4] | 81.4% and 84.4%
22 | 64.1 | 4.4 |  | 69.4 | O=C(CCl)Nc1cc(C2CC2)nn1-c1ccccc1 [C2-5] | -2.7% and -8.6%
23 | 36.8 | 84.5 |  | 25.2 | N#Cc1cnn(-c2ccccc2)c1NC(=O)CCl [C2-6] | -17% and -9.7%
24 | 56.0 | 79.7 | 598 | 55.3 | O=C(CCl)Nc1ccnn1Cc1cccc(Cl)c1 [C2-7] | 85.7% and 91%
25 | 75.7 | 3.7 |  |  | O=C(CCl)Nc1nc(-c2c[nH]c3ccccc23)cs1 [C2-25] | 0.5% and 4.3%
26 | 59.5 | -2.8 |  |  | Cc1ccc(-c2oc(NC(=O)CCl)c(C#N)c2-c2ccc(C)cc2)cc1 [C2-28] | 88.5%
27 | -2.6 | 31.6 |  |  | COc1cc(OC)c(OC)cc1CNC(=O)CCl [C3-4] | 16% and 17.5%
28 | -1.7 | 32.3 |  |  | NC(=O)CCN(C(=O)CCl)c1ccccc1 [C4-3] | 70.6% and 71.9%
29 | 69.3 | 70.2 | 902 |  | C=CCOc1ccccc1CN(C(=O)CCl)c1ccc2c(c1)OCCO2 [C4-17] | 29%
30 | 67.5 | 83.5 | 48 |  | O=C(CCl)N1CCC(Cc2ccccc2)CC1 [C5-1] | 93.4%
31 | 70.2 | 94.6 | 191 |  | O=C(CCl)N1CCN(c2ncc(C(F)(F)F)cc2Cl)CC1 [C5-6] | 56.2%
32 | 62.4 | 63.7 | 262 |  | O=C(CCl)N1CCN(S(=O)(=O)c2ccc3c(c2)OCCO3)CC1 [C5-15] | 82.7% and 87.3%
33 | 69.7 | 72.7 | 164 |  | CN(C)S(=O)(=O)c1ccc2c(c1)CCCN2C(=O)CCl [C5-18] | 91.6% and 91.4%
34 | 72.2 | 40.0 |  |  | O=C(CCl)N1CCc2cc([N+](=O)[O-])ccc21 [C5-19] | 84.6% and 75.2%
35 | 68.1 | 61.0 | 2290 |  | CC1Cc2cc(S(N)(=O)=O)ccc2N1C(=O)CCl (stereo not drawn) [C5-20] | 80.5% and 89.8%

Row | SMILES | GSTO binding assay (% Inhibition at 10 µM) Recombinant (GSTO1 [1]) [%] | GSTO substrate assay % Inhibition at 10 µM (GSTO1 [2]) [%] | IC50 (GSTO1 [2]) [nM] | GSTO binding assay (% Inhibition at 10 µM) Endogenous (endogenous GSTO1) [%] | % Inhibition of HCT116p53+/+ cell proliferation at 10 µM (HCT116p53+/+ cell)
36 | CCN1CCN(c2ccc(NC(=O)CCl)cc2)CC1 [C1-20] | -8.5 | 66.9 |  | -15.1 | 43.7% and 39%
